Patent US20260335495A1, “SYNERGISTIC ACTIVITY OF NOVEL COMPOUNDS AGAINST PLANKTONIC AND BIOFILM CELLS OF CLINICALLY RELEVANT PATHOGENS” (priority 2021, published 2026)
Counter-ions that a name gives are not always drawn.

Tests used:
[1] = test system: preformed biofilms of test pathogens; experiment: MBEC and FBEC index, 48 h old biofilms, summary over strains; format: cell-based, bacterial and fungal strains; details: alone: 4% tetrasodium EDTA, 50% ethanol, 100 μg/mL chlorhexidine HCl, 24 hours
Method: The evaluation of the biofilm cultivation cell composition was evaluated using an MBEC Assay® biofilm inoculator, consisting of a polystyrene lid with 96 downward-protruding pegs and a corresponding base used to grow biofilms. A standardized inoculum was diluted in an appropriate biofilm growth medium to achieve a viable cell count of 1.5×10^6 CFU/mL of bacterial cells or 5×10^5 CFU/mL of fungal cells. Then, 150 μL of this inoculum was transferred into each appropriate well, and the peg lids were inserted into the microtiter plates. The plates were sealed with Parafilm and were incubated at optimum temperature for 48 h with slight rocking for bacteria and shaking at 200 rpm for fungal strains. After incubation, the peg lid was removed from the base and rinsed twice with sterile phosphate-buffered saline (PBS) for 2 min to remove loosely attached non-sessile cells. Before the antimicrobial challenge, the pegs in column 1 (n=8) were considered as the biofilm growth control; these pegs were removed from the lids, placed into 200 μL of recovery medium, and analyzed for starting biofilm cell numbers as described below. […] After the antimicrobial challenge, the pegs were rinsed twice with sterile PBS for 2 min and placed into a new 96-well plate containing 200 μL of recovery medium. The recovery plates were sealed with Parafilm, and biofilm cells were dislodged from the pegs by sonication for 30 min with a Branson 3510 bath sonicator. The biofilm cells in the recovery medium were serially diluted, and a drop dilution assay was performed to enumerate the viable cells.
In step (4), microtiter plates are incubated at 37 °C for 24 h. then (6), after incubation, the bacterial and fungal cells were dislodged from the pegs into the recovery medium described above.
Three 10-μL aliquots, for a total of 30 μL from each well of recovery medium, were spotted on MH agar plates and incubated for 24 hours at 37 °C. […] The FBEC determination is a modification of the FICI. […]

Escherichia coli ON29 = experiment: MIC and checkerboard (FICI), planktonic cells; format: cell-based
Method: (§1) The MIC was determined by the micro broth dilution method in 96-well plates. […] A 10 μL containing 1×10^5 bacterial cells or 2×10^3 fungal cells were added to each well. The inoculated plates were covered with a lid, sealed with Parafilm, and incubated for 24 h at 37 °C with slight rocking on a tilting platform shaker. After incubation, the optical density at 600 nm (OD 600) of the cultures in each well was measured using an xMark™ Microplate Absorbance Spectrophotometer (Bio-Rad). The MIC was defined as the lowest concentration of antimicrobial compound at which the culture OD600 values was similar to uninoculated control wells. MBCs and MFCs were determined by transferring 100 μL from each well with no apparent growth onto appropriate agar plates, followed by incubation for 24 h at 37 °C.
(§2) The concentrations of antimicrobials used were based on previously determined MIC values. […] Microtiter plates were incubated at 37 °C for 24 h, and the results were analyzed. Each test was performed in duplicate and included a growth control without the addition of any antimicrobials.

[2] = test system: Pseudomonas aeruginosa SK1; experiment: MIC and checkerboard (FICI), planktonic cells; format: cell-based
Method: as §1, §2

Serratia marcescens SK2 = experiment: MIC and checkerboard (FICI), planktonic cells; format: cell-based
Method: as §1, §2

[3] = test system: Staphylococcus aureus ON89; experiment: MIC and checkerboard (FICI), planktonic cells; format: cell-based
Method: as §1, §2

[4] = test system: Staphylococcus epidermidis ON170; experiment: MIC and checkerboard (FICI), planktonic cells; format: cell-based
Method: as §1, §2

S. epidermidis SK9 = experiment: MIC and checkerboard (FICI), planktonic cells; format: cell-based
Method: as §1, §2

E. coli SK2 = experiment: MIC and checkerboard (FICI), planktonic cells; format: cell-based
Method: as §1, §2

Candida albicans SK4b = experiment: MIC and checkerboard (FICI), planktonic cells; format: cell-based
Method: as §1, §2

C. albicans ON47 = experiment: MIC and checkerboard (FICI), planktonic cells; format: cell-based
Method: as §1, §2

[5] = test system: Stenotrophomonas maltophilia ON17; experiment: MIC and checkerboard (FICI), planktonic cells; format: cell-based
Method: as §1, §2

Proteus mirabilis ON153 = experiment: MIC and checkerboard (FICI), planktonic cells; format: cell-based
Method: as §1, §2

MRSA ON184 = experiment: MIC and checkerboard (FICI), planktonic cells; format: cell-based, methicillin-resistant S. aureus
Method: as §1, §2

[6] = test system: bacterial and fungal biofilms; experiment: Rapid eradication of 48-h-old biofilms within 2 h exposure; format: cell-based, bacterial and fungal strains; details: at the MBEC alone, 48-h-old biofilm
Method: This example comprises performing biofilm growth as described above. After biofilm formation, control pegs (n=6) were removed and analyzed to determine the starting biofilm cell numbers via the drop dilution method. The 48-h old biofilms on the pegs were exposed to different concentrations of test antimicrobials, dissolved in an appropriate growth medium, for 2 hours to evaluate their efficacy alone and in combination. […] Following treatment, pegs were washed twice with sterile PBS, and the biofilm cells were dislodged into recovery medium and enumerated as described above.

12 test organisms = experiment: MBC/MFC and FMCI, planktonic cells, summary over strains; format: cell-based, bacterial and fungal organisms
Method: as §1, §2

[7] = overuse; cited from earlier work
[8] = test system: human erythrocytes and neutrophils; details: concentrations above 2%, in vitro; cited from earlier work
[9] = cited from earlier work
S. aureus = details: cited from earlier work
biofilms = details: cited from earlier work
[10] = test system: broad range of microbial species; details: even at high concentrations; cited from earlier work

[H]/N=C(\N/C(=N/[H])NCCCCCCNC(=N)NC(=N)Nc1ccc(Cl)cc1)Nc1ccc(Cl)cc1 [CH, chlorhexidine HCl]
eradication of all established biofilms [1]: able to eradicate all established biofilms | MIC (Escherichia coli ON29; Escherichia coli, ON29, alone, 24 h, 37 °C, read-out: MIC): 0.4 µg/mL | MIC in combination (Escherichia coli ON29; TE + CH in combination): 0.2 µg/mL | MIC ([2]; Pseudomonas aeruginosa, SK1, 24 h): 1.6 µg/mL | MIC in combination ([2]; TE + CH in combination): 0.8 µg/mL | MIC (Serratia marcescens SK2; Serratia marcescens, SK2, 24 h): 12.5 µg/mL | MIC in combination (Serratia marcescens SK2; TE + CH in combination): 1.5 µg/mL | MIC ([3]; Staphylococcus aureus, ON89, alone, 24 h, 37 °C, read-out: MIC): 0.1 µg/mL | MIC in combination ([3]; TE + CH in combination): 0.1 µg/mL | MIC ([4]; Staphylococcus epidermidis, ON170, alone, 24 h, 37 °C, read-out: MIC): 0.1 µg/mL | MIC in combination ([4]; TE + CH in combination): 0.05 µg/mL | MIC (S. epidermidis SK9; Staphylococcus epidermidis, SK9, alone, 24 h, 37 °C, read-out: MIC): 0.1 µg/mL | MIC in combination (S. epidermidis SK9; TE + CH in combination): 0.025 µg/mL | MIC (E. coli SK2; Escherichia coli, SK2, 24 h): 0.4 µg/mL | MIC in combination (E. coli SK2; TE + CH in combination): 0.1 µg/mL | MIC (Candida albicans SK4b; Candida albicans, SK4B, 24 h): 1.6 µg/mL | MIC in combination (Candida albicans SK4b; TE + CH in combination): 0.8 µg/mL | MIC (C. albicans ON47; Candida albicans, ON47, 24 h): 1.6 µg/mL | MIC in combination (C. albicans ON47; TE + CH in combination): 0.8 µg/mL | MIC ([5]; Stenotrophomonas maltophilia, ON17, 24 h): 0.8 µg/mL | MIC in combination ([5]; TE + CH in combination): 0.2 µg/mL | MIC (Proteus mirabilis ON153; Proteus mirabilis, ON153, alone, 24 h, 37 °C, read-out: MIC): 50 µg/mL | MIC in combination (Proteus mirabilis ON153; TE + CH in combination): 0.8 µg/mL | MIC (MRSA ON184; Staphylococcus aureus, MRSA, alone, 24 h, 37 °C, read-out: MIC): 0.2 µg/mL | MIC in combination (MRSA ON184; TE + CH in combination): 0.2 µg/mL | biofilm eradication [6]: failed to eradicate the preformed biofilms | microbicidal activity (12 test organisms): broad-spectrum microbicidal activity

[H]/N=C(\N/C(=N/[H])NCCCCCCNC(=N)NC(=N)Nc1ccc(Cl)cc1)Nc1ccc(Cl)cc1 [Chlorhexidine, 1,6-bis(4-chloro-phenylbiguanido)hexane]
reduced susceptibility and cross-resistance [7]: reduced susceptibility from its overuse and a cross-resistance to colistin | effect on human erythrocytes and neutrophils [8]: fewer human erythrocytes and neutrophils in vitro | mammalian toxicity ([9]; in vivo): low mammalian toxicity | chemical burns ([9]; infants): cause chemical burns in infants | allergenicity ([9]; perioperative and clinical care settings): significant allergen

Heparin
colonization of catheter surfaces (S. aureus): promote the colonization of S. aureus on catheter surfaces | inhibition or eradication of biofilms (biofilms): neither of these agents has the potential to inhibit or eradicate biofilms

O=C(O)CN(CCN(CC(=O)O)CC(=O)O)CC(=O)O [disodium EDTA]
antimicrobial activity alone [10]: not a potent antimicrobial agent (i.e., does not kill cells)
